The results in this text go back to article doi:10.1101/2025.09.30.679521v1, “Crystallographic characterisation and development of bi-substrate inhibitors of coronavirus nsp14 methyltransferase” (biorxiv, 2025).

Read-outs that look alike come from different tables or passages of the source.

One data set is described as follows: in vitro. Set-up: mouse liver microsomal stability. As to conditions: liver microsomes; Mouse liver microsomes; read-out: Mouse liver Mic T1/2 / min. From the text:
We initiated our structure-activity relationship (SAR) studies by investigating various replacements for the benzothiazole group, compounds 2-17, Table 1. […] Relatively flat SAR is observed across this subset of compounds, indeed a 6,5 or 6,6 aromatic system with the appropriate connectivity as compound 1 display relatively similar potencies. […] In general, the mouse microsomal clearance was rather low for this set of molecules, with no significant instabilities introduced, with perhaps the exception of compound 4. With no significant advantages in either potency or mouse microsomal clearance (Table S2) identified for this subset, the benzothiazole was taken forward into subsequent SAR studies. Table 2. Enzymatic inhibition against SARS-CoV-2 nsp14, human RNMT, CHI-logD and mouse microsomal stability.

For the next data set, the target named is HCoV-NL63 nsp14 (Human coronavirus NL63, UniProt P0C6X5). The data set can be described thus: RapidFire MS methyltransferase assay. It is filed as biochemical. The source says: RapidFire MS methyltransferase assay on HCoV-NL63 nsp14
Sequence of HCoV-NL63 nsp14 (P0C6X5 5568-6085): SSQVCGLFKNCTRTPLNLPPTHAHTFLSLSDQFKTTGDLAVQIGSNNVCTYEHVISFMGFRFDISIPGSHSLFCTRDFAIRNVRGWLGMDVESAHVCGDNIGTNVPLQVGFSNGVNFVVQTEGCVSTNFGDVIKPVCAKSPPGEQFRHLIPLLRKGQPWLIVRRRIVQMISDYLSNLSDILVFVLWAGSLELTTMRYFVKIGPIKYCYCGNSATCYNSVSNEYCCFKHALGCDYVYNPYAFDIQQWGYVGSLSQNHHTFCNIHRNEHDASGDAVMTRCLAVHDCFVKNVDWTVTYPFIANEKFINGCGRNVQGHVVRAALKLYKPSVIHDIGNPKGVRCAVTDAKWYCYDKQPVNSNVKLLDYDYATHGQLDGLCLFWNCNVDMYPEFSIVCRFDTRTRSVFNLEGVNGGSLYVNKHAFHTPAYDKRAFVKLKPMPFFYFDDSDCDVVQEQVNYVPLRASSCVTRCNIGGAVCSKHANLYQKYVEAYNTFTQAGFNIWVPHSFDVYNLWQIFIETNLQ
The target in a further data set is T1, SARS-CoV-2 nsp14 (Severe acute respiratory syndrome coronavirus 2, UniProt P0DTD1).
T1 construct: gene rep
The data set can be described thus: RapidFire MS methyltransferase assay. It counts as biochemical. From the text:
RapidFire MS methyltransferase assay on SARS-CoV-2 nsp14

Another data set deals with T2, HCoV-229E nsp14 (Human coronavirus 229E, UniProt P0C6X1).
T2 construct: gene rep
T2 sequence (P0C6X1 5593-6110): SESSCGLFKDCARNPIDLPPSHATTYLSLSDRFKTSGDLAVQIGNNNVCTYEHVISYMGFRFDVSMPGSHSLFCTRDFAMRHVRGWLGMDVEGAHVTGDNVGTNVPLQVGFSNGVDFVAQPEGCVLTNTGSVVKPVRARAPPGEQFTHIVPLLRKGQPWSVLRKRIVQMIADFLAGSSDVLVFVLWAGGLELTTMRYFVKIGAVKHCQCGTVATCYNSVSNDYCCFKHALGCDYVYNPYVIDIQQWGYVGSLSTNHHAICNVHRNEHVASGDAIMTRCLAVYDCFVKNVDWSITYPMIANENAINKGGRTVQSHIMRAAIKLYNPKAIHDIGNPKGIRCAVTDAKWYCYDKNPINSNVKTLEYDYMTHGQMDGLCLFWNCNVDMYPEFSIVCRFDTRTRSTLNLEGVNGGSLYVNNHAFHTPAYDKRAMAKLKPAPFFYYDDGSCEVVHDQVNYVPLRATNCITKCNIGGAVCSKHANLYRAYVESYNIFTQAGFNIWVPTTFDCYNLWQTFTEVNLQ
As to the kind of experiment: RapidFire MS methyltransferase assay. It counts as biochemical. From the text: RapidFire MS methyltransferase assay on HCoV-229E nsp14

Another data set addresses human RNMT (Homo sapiens, UniProt O43148). The data set can be described thus: RNMT methyltransferase assay (Gray et al.). It is filed as biochemical. From the text: RNMT methyltransferase assay (Gray et al.) on human RNMT

Sequence of human RNMT (O43148 whole entry): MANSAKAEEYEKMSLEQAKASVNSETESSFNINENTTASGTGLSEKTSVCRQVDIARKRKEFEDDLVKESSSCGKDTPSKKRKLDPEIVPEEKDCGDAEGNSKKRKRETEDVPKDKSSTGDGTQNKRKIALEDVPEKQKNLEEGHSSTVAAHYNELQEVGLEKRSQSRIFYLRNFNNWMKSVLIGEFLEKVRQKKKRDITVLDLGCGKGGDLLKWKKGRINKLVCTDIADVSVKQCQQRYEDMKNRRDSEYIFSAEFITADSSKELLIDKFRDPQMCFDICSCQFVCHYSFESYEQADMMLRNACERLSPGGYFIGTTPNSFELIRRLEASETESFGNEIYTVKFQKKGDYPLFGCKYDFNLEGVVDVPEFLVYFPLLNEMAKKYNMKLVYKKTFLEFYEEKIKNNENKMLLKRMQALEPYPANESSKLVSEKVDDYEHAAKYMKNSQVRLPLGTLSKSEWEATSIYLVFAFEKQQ

For the molecule `Nc1ncnc2c1ncn2[C@@H]1O[C@H](CSc2nccs2)[C@@H](O)[C@H]1O` [compound 11, (2R,3R,4S,5S)-2-(6-Aminopurin-9-yl)-5-(thiazol-2-ylsulfanylmethyl) tetrahydrofuran-3,4-diol], the half-life in the data set “in vitro” is above 30 min.
Same read-out and setting: the figure for `Nc1ncnc2c1ncn2[C@@H]1O[C@H](CSc2nc3ccccc3o2)[C@@H](O)[C@H]1O` [compound 14, (2R,3R,4S,5S)-2-(6-Amino-9H-purin-9-yl)-5-((benzo[d]oxazol-2-ylthio)methyl) tetrahydrofuran-3,4-diol] is above 30 min.
Regarding `Nc1ncnc2c1ncn2[C@@H]1O[C@H](CSc2nc3ccccc3o2)[C@@H](O)[C@H]1O` [compound 14], the concentration for half-maximal inhibition (IC50) on HCoV-NL63 nsp14 (read-out: IC50) is 0.66 ± 0.4 µM; at SARS-CoV-2 nsp14 (read-out: IC50) it was 0.67 ± 0.02 µM; on HCoV-229E nsp14 (read-out: IC50) it was 0.95 ± 0.02 µM; against human RNMT, above 100 µM. The same molecule displayed a logD in the data set “physchem” of 1.
Consider `Nc1ncnc2c1ncn2[C@@H]1O[C@H](CSc2nc3ccccc3[nH]2)[C@@H](O)[C@H]1O` [compound 15, (2S,3S,4R,5R)-2-(((1H-Benzo[d]imidazol-2-yl)thio)methyl)-5-(6-amino-9H-purin-9-yl) tetrahydrofuran-3,4-diol], for which, in the data set “in vitro”, the half-life is above 30 min.
As to `Nc1ncnc2c1ncn2[C@@H]1O[C@H](CSc2nc3ccccc3[nH]2)[C@@H](O)[C@H]1O` [compound 15], the IC50 was 0.48 ± 0.1 µM on HCoV-NL63 nsp14 (read-out: IC50), 0.59 ± 0.11 µM at SARS-CoV-2 nsp14 (read-out: IC50), 0.86 ± 0.2 µM at HCoV-229E nsp14 (read-out: IC50) and above 100 µM at human RNMT. In “physchem”, this molecule gave a logD of 0.3.
In the case of `Nc1ncnc2c1ncn2[C@@H]1O[C@H](CSc2cccc3cn[nH]c23)[C@@H](O)[C@H]1O` [compound 16], the IC50 at SARS-CoV-2 nsp14 (SAM and RNA cap substrate at KM (SAM 1.0 µM), unreliable (footnote: one IC50 measured > 100 µM)) was 79 ± 18 µM; at human RNMT, above 100 µM. In the data set “physchem”, this molecule registered a logD of 0.7.
Turning to `Nc1ncnc2c1ncn2[C@@H]1O[C@H](CSc2ccn3cncc3c2)[C@@H](O)[C@H]1O` [compound 17, (2R,3R,4S,5S)-2-(6-Aminopurin-9-yl)-5-(imidazo[1,5-a]pyridine-7-ylsulfanylmethyl) tetrahydrofuran-3,4-diol], in the data set “in vitro”, the half-life came out at 11.1 min.
On to `Nc1ncnc2c1ncn2[C@@H]1O[C@H](CSc2ccn3cncc3c2)[C@@H](O)[C@H]1O` [compound 17], for which the IC50 on HCoV-NL63 nsp14 (read-out: IC50) amounted to 6.4 ± 1.6 µM; on SARS-CoV-2 nsp14 (read-out: IC50), 6.9 ± 4.6 µM; at HCoV-229E nsp14 (read-out: IC50), 1.1 ± 0.15 µM; against human RNMT it was 31.1 µM. This molecule registered a logD in “physchem” of 0.1.
Regarding `CNc1ncnc2c1ncn2[C@@H]1O[C@H](CSc2nc3ccccc3s2)[C@@H](O)[C@H]1O` [compound 18, (2S,3S,4R,5R)-2-(1,3-Benzothiazol-2-ylsulfanylmethyl)-5-[6-(methylamino)purin-9-yl]tetrahydrofuran-3,4-diol], the half-life in “in vitro” was determined as 19.7 min.
Consider `Nc1ncnc2c1ccn2[C@@H]1O[C@H](CSc2nc3ccccc3s2)[C@@H](O)[C@H]1O` [compound 27], for which the half-life in the data set “in vitro” was above 30 min. For the same molecule, the IC50 is 0.039 ± 0.006 µM at HCoV-NL63 nsp14 (read-out: IC50), 0.055 ± 0.02 µM on SARS-CoV-2 nsp14 (read-out: IC50), 0.041 ± 0.004 µM at HCoV-229E nsp14 (read-out: IC50) and above 100 µM on human RNMT. Also, in the data set “physchem”, the logD amounted to 1.6.
As to `Nc1ncnc2c1ccn2[C@@H]1C[C@H](CSc2nc3ccccc3s2)[C@@H](O)[C@H]1O` [compound 28], the half-life in “in vitro” is above 30 min. The logD in the data set “physchem” was determined as 1.8.
Turning to `N#Cc1cn([C@@H]2O[C@H](CSc3nc4ccccc4s3)[C@@H](O)[C@H]2O)c2ncnc(N)c12` [compound 29], the half-life in the data set “in vitro” was determined as 12.1 min. Besides, the IC50 against HCoV-NL63 nsp14 was 0.073 ± 0.026 µM; against SARS-CoV-2 nsp14 it was 0.17 ± 0.02 µM; against HCoV-229E nsp14, 0.1 ± 0.007 µM; at human RNMT, above 100 µM. The logD in the data set “physchem” turned out to be 1.8.
On to `C#Cc1cn([C@@H]2O[C@H](CSc3nc4ccccc4s3)[C@@H](O)[C@H]2O)c2ncnc(N)c12` [compound 30], for which the half-life in “in vitro” turned out to be 10.1 min. Also, the 50% inhibitory concentration (IC50) against HCoV-NL63 nsp14 was 0.029 ± 0.009 µM; at SARS-CoV-2 nsp14, 0.054 ± 0.01 µM; against HCoV-229E nsp14 it was 0.033 ± 0.002 µM; against human RNMT, above 100 µM. Moreover, the logD in “physchem” came to 2.
For the molecule `CCc1cn([C@@H]2O[C@H](CSc3nc4ccccc4s3)[C@@H](O)[C@H]2O)c2ncnc(N)c12` [compound 31, (2R,3R,4S,5S)-2-(4-amino-5-ethyl-pyrrolo[2,3-d]pyrimidin-7-yl) -5-(1,3-benzothiazol-2-ylsulfanylmethyl)tetrahydrofuran-3,4-diol], the half-life in “in vitro” amounted to 3.9 min.
On to `CCc1cn([C@@H]2O[C@H](CSc3nc4ccccc4s3)[C@@H](O)[C@H]2O)c2ncnc(N)c12` [compound 31], for which the IC50 is 0.052 ± 0.009 µM at HCoV-NL63 nsp14 (read-out: IC50), 0.25 ± 0.2 µM on SARS-CoV-2 nsp14 (read-out: IC50), 0.12 ± 0.01 µM at HCoV-229E nsp14 (read-out: IC50) and above 100 µM on human RNMT. In addition, the logD in “physchem” was found to be 2.1.
In the case of `Nc1ncnn2c([C@@H]3O[C@H](CSc4nc5ccccc5s4)[C@@H](O)[C@H]3O)ccc12` [compound 35, (2S,3R,4S,5S)-2-(4-Aminopyrrolo[2,1-f][1,2,4]triazin-7-yl)-5-(1,3-benzothiazol-2-ylsulfanylmethyl)tetrahydrofuran-3,4-diol], the half-life in “in vitro” was above 30 min.
Turning to `Nc1ncnn2c([C@@H]3O[C@H](CSc4nc5ccccc5s4)[C@@H](O)[C@H]3O)ccc12` [compound 35], the results for the IC50 at HCoV-NL63 nsp14 (read-out: IC50), on SARS-CoV-2 nsp14 (read-out: IC50) and at HCoV-229E nsp14 (read-out: IC50) were 0.1 ± 0.02 µM, 0.37 ± 0.13 µM and 0.19 ± 0.04 µM, respectively. The molecule also came in with a logD in “physchem” of 1.5.
Consider `Cc1ccc2nc(SC[C@H]3O[C@@H](c4ccc5c(N)ncnn45)[C@H](O)[C@@H]3O)sc2c1` [compound 36, (2S,3R,4S,5S)-2-(4-Aminopyrrolo[2,1-f][1,2,4]triazin-7-yl)-5-[(6-methyl-1,3-benzothiazol-2-yl)sulfanylmethyl]tetrahydrofuran-3,4-diol], for which the half-life in the data set “in vitro” came to 18 min.
For the molecule `Cc1ccc2nc(SC[C@H]3O[C@@H](c4ccc5c(N)ncnn45)[C@H](O)[C@@H]3O)sc2c1` [compound 36], the IC50 on SARS-CoV-2 nsp14 (read-out: IC50) is 0.34 ± 0.14 µM. The same molecule gave a logD in the data set “physchem” of 1.9.
As for `Nc1ncnn2c([C@@H]3O[C@H](CSc4ccc5ccccc5c4)[C@@H](O)[C@H]3O)ccc12` [compound 37, (2S,3R,4S,5S)-2-(4-Aminopyrrolo[2,1-f][1,2,4]triazin-7-yl)-5-(2-naphthylsulfanylmethyl) tetrahydrofuran-3,4-diol], in the data set “in vitro”, the half-life worked out at 13.6 min.
In the case of `Nc1ncnn2c([C@@H]3O[C@H](CSc4ccc5ccccc5c4)[C@@H](O)[C@H]3O)ccc12` [compound 37], the IC50 on SARS-CoV-2 nsp14 (read-out: IC50) worked out at 0.2 ± 0.07 µM. Moreover, in the data set “physchem”, the logD came to 2.2.
`Nc1ncnn2c([C@@H]3O[C@H](CSc4ccc5ccccc5n4)[C@@H](O)[C@H]3O)ccc12` [compound 38, (2S,3R,4S,5S)-2-(4-Aminopyrrolo[2,1-f][1,2,4]triazin-7-yl)-5-(2-quinolylsulfanylmethyl) tetrahydrofuran-3,4-diol]: the half-life in “in vitro” is above 30 min.
On to `Nc1ncnn2c([C@@H]3O[C@H](CSc4ccc5ccccc5n4)[C@@H](O)[C@H]3O)ccc12` [compound 38], for which the IC50 on SARS-CoV-2 nsp14 (read-out: IC50) was found to be 0.68 ± 0.11 µM. Also, in the data set “physchem”, the logD was determined as 1.7.
Consider `Nc1ncnn2c([C@@H]3O[C@H](CCc4nc5ccccc5s4)[C@@H](O)[C@H]3O)ccc12` [compound 39, (2S,3R,4S,5R)-2-(4-Aminopyrrolo[2,1-f][1,2,4]triazin-7-yl)-5-[2-(1,3-benzothiazol-2-yl)ethyl]tetrahydrofuran-3,4-diol], for which the half-life in “in vitro” was above 30 min.
Turning to `Nc1ncnn2c([C@@H]3O[C@H](CCc4nc5ccccc5s4)[C@@H](O)[C@H]3O)ccc12` [compound 39], the values for the IC50 on HCoV-NL63 nsp14 (read-out: IC50), on SARS-CoV-2 nsp14 (read-out: IC50) and on HCoV-229E nsp14 (read-out: IC50) were 0.76 ± 0.3 µM, 0.5 ± 0.4 µM and 2.3 ± 0.05 µM, respectively. In the data set “physchem”, this molecule displayed a logD of 1.3.
